Publication PMC8636514, “Therapeutic potential of TRPM8 antagonists in prostate cancer” (Scientific Reports, 2021)
Where two headings read alike, the source gives them in different places.

Assays:
human TRPM8 [1] = target: T1, human TRPM8 (Homo sapiens, UniProt Q7Z2W7); test: Patch-clamp assay on TRPM8 channels (HEK-293/TRPM8 cells, menthol-evoked currents); format: cell-based; conditions: for inhibitory effect on menthol-evoked TRPM8 currents: dependence on concentration
T1 construct: expressed in transfected cells; host or cells: HEK-293/TRPM8 exon1 K3 cells
T1 sequence (Q7Z2W7 whole entry): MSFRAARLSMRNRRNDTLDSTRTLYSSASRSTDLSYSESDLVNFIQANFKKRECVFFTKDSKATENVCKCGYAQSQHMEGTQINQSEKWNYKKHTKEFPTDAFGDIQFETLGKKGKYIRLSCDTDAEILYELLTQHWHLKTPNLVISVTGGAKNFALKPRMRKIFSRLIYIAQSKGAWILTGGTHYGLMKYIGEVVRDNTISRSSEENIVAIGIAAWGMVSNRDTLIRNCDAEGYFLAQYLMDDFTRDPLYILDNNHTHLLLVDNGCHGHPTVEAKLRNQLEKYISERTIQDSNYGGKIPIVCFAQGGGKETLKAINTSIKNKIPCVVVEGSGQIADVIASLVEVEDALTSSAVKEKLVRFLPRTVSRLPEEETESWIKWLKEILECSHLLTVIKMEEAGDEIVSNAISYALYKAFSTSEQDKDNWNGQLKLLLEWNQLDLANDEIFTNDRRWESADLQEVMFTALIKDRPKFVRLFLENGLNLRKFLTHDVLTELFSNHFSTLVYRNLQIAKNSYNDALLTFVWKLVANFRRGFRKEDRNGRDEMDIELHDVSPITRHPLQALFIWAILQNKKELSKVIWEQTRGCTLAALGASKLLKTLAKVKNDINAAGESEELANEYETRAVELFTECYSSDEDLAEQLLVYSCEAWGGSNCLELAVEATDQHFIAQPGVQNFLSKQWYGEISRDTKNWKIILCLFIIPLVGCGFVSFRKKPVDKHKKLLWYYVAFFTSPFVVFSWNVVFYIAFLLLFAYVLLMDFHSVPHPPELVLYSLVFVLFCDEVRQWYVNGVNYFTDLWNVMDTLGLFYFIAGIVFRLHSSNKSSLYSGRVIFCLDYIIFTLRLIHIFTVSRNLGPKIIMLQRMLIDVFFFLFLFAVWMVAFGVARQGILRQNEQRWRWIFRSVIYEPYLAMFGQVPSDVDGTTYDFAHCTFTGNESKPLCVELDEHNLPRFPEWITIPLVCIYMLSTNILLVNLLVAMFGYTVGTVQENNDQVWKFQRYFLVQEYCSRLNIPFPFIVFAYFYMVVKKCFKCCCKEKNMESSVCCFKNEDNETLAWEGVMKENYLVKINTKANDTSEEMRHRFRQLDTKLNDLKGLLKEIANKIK
Experimental: Patch clamp experiments for compounds 4, 5 and 9 were done as described. HEK-293/TRPM8 exon 1 cells were seeded 3 or 4 days before experiment at a concentration of 4 and 2.5 million cells, respectively, onto a T225 flask. Before each experiment, cells were washed two times with D-PBS without Ca^2+/Mg^2+ (Euroclone, Milan, Italy) and trypsinized with trypsin−EDTA (Sigma-Aldrich; diluted 1/10). Cells were suspended in 25 mL of EX-CELL ACF CHO medium (Sigma-Aldrich, Milan, Italy), 0.625 mL of HEPES (Lonza, Walkersville, USA), 0.25 mL of 100 × penicillin/streptomycin (Lonza, Walkersville, USA), 0.1 mL of soybean trypsin inhibitor 10 mg/mL (Sigma-Aldrich), and placed on the automated patch-clamp platform (QPatch 16X, Sophion Bioscience, Ballerup, Denmark). A stock solution of L-Menthol (1 M, 100% DMSO), used as reference agonist, was freshly prepared. A diluted stock of 300 mM was prepared from the 1 M stock in 100% DMSO, and a final dilution was obtained using the extracellular solution to give a working concentration of 300 μM (1:1000, 0.1% final DMSO concentration). Stock solutions of the testing compounds (10 mM; 100% DMSO; stored at − 20 °C) were freshly prepared, as well. Further dilution of these stock solutions to a final concentration of 300 μM was performed from the 10 mM stock in 100% DMSO, and the working dilutions were performed just before the experiments using the extracellular solution containing 300 μM menthol. The highest concentration tested was 300 nM, with serial dilutions (1:10). DMSO was balanced to keep it constant throughout all the solutions in the same experiment (0.2% final DMSO concentration). Standard whole-cell voltage clamp experiments were performed at room temperature using the multihole technology. For the voltage clamp experiments on human TRPM8, data were sampled at 2 kHz. After establishment of the seal and the passage in the whole cell configuration, the cells were subjected to a voltage ramp (20 ms step at − 60 mV; 100 ms ramp − 60/ + 100 mV; 20 ms step at + 100 mV; return to − 60 mV) every 4 s. The antagonistic effect on human TRPM8 current of target compounds was evaluated after application of the agonist (menthol, 300 μM), in the absence or presence of increasing concentrations of the compound under investigation. Outward current evoked by the voltage ramp, measured in the step at + 100 mV were measured. The intracellular solution contained (mM) 135 CsCl, 10 BAPTA, 10 HEPES, 4 Na2ATP (pH 7.2 with CsOH). The extracellular solution contained (mM) 145 NaCl, 4 KCl, 1 MgCl2, 2 CaCl2, 10 HEPES, 10 glucose (pH 7.4 with NaOH). TRPM8 modulation by final compounds 3 and 6 has been previously determined by patch clamp measurements[29],[30].

LNCaP cells [2] = test: DNA synthesis (BrdU incorporation) in LNCaP cells; format: cell-based, human; conditions: 10 nM R1881, compound 1 μM
Experimental: […] Cells were fixed, permeabilized, washed and the BrdU incorporation was analysed as reported. Nuclei were stained with Hoechst and cells on coverslips were scored by IF microscopy, using a DMLB Leica (Leica) fluorescent microscope, equipped with HCX PL Apo 63 × oil objective. Different fields from each coverslip were analyzed and BrdU incorporation was calculated by the formula: percentage of BrdU-positive cells = (No. of BrdU-positive cells/No. of total cells) × 100. Data in the graphs derive from at least 1000 scored cells for each coverslip. Representative images were captured using DC480 camera (Leica) and acquired using Leica Suite software. They are representative of three different experiments.

LNCaP cells [3] = system: LNCaP cells; design: method as in PMID 33288740; conditions: cited from earlier work
human TRPM8 [4] = target: T1, human TRPM8; conditions: maximal currents at 5 µM compared to L-menthol 100 µM; cited from earlier work
C4-2B cells = test: DNA synthesis (BrdU incorporation) in C4-2B cells; format: cell-based, human; conditions: cycling cells, 18 h, 10 μM
Experimental: Cells on coverslips were pulsed in vivo with BrdU (Sigma-Aldrich; at 100 μM, final concentration) and left unchallenged or challenged with 10 nM R1881 for 18 h, in the absence or presence of the indicated compounds. Cells were fixed, permeabilized, washed and the BrdU incorporation was analysed as reported. Nuclei were stained with Hoechst and cells on coverslips were scored by IF microscopy, using a DMLB Leica (Leica) fluorescent microscope, equipped with HCX PL Apo 63 × oil objective. Different fields from each coverslip were analyzed and BrdU incorporation was calculated by the formula: percentage of BrdU-positive cells = (No. of BrdU-positive cells/No. of total cells) × 100. Data in the graphs derive from at least 1000 scored cells for each coverslip. Representative images were captured using DC480 camera (Leica) and acquired using Leica Suite software. They are representative of three different experiments.

PSA = PSA secretion (ELISA) from LNCaP cells; format: cell-based, human; conditions: enzalutamide 10 μM
Experimental: It was done in culture medium using the PSA ELISA kit (Abnova-Taiwan Corporation, Taiwan), according to the manufacturer’s instructions. Released PSA was analyzed at 450 nm using the EnSpire Multimode Plate Reader (Perkin-Elmer, U.S.A.).

[5] = system: FAK, paxillin, ERK, RSK and Src tyrosine kinase; test: Western blot of androgen-induced rapid actions in LNCaP cells (Fig. 6c); format: cell-based, human; conditions: 10 nM R1881, 10 min, enzalutamide 10 μM
Excerpt: (§1) All performed as reported. The mouse monoclonal anti-AR (441; Santa Cruz) antibody was used in Co-Ip or WB approaches. TRPM8 was detected using the rabbit polyclonal anti-TRPM8 (NBP1-97311; Novus Biological). […] The rabbit polyclonal anti-ERK (C-14; Santa Cruz), antibody was used to detect total ERK. FAK and P-Tyr397 FAK were detected using the mouse monoclonal anti-FAK (Clone 77/610077 BD Transduction Laboratories) or anti P-Tyr397 FAK (Clone 14/611722; BD Transduction Laboratories) antibodies, respectively. P-Tyr118 paxillin and total paxillin were detected using the rabbit polyclonal anti-P-Y118 (#2541, Cell Signaling) or the mouse monoclonal anti-paxillin (clone 349; BD Biosciences) antibodies, respectively. […] P-Tyr 416 Src and Src were detected using the rabbit monoclonal anti P-Tyr 416 Src (#6943; Cell Signaling) or the mouse monoclonal anti Src (Calbiochem) antibodies, respectively. ERα and ERβ were detected using the rabbit polyclonal anti-ERα (543; Santa Cruz) or anti-ERβ (Upstate Biotechnology, U.S.A.) antibodies. Cyclin D1, p27 and Cdk4 were stained using the mouse monoclonal anti-cyclin D1 (clone AM29; from Zymed Laboratories Inc.), the rabbit polyclonal anti-p27 (C-19; Santa Cruz) or anti Cdk-4 (c-22; Santa Cruz) antibodies, respectively. The mouse monoclonal anti-tubulin (Sigma-Aldrich) antibody was used to detect tubulin. The ECL system (GE Healthcare) was employed to reveal immune-reactive proteins. Densitometric analysis of WB was performed by using Image J Software (https://imagej.nih.gov/ij).

AR/TRPM8 complex = target: T2, AR/TRPM8 complex (Homo sapiens, UniProt Q7Z2W7); test: Co-IP of AR with TRPM8 in LNCaP cells; format: cell-based; conditions: for AR, Average (n=3) / TRPM8, Average (n=3): Fig 6e, R1881 + enz 10 μM
T2 construct: We here dissected an endogenous non-genomic mechanism of the TRPM8 channel regulation by androgens in PC cells; endogenous in cells; host or cells: LNCaP cells
T2 sequence (Q7Z2W7 whole entry, one chain of several): as the sequence (Q7Z2W7 whole entry) above
Excerpt: as §1

AR = test: Western blot of AR in LNCaP lysate proteins; format: cell-based, human; conditions: Fig 6e, R1881 + enz 10 μM
Excerpt: as §1

TRPM8 = test: Western blot of TRPM8 in LNCaP lysate proteins; format: cell-based, human; conditions: Fig 6e, R1881 + enz 10 μM
Excerpt: as §1

[6] = fourth group of list (probably IP anti-AR)

In the case of O=[N+]([O-])c1ccc(Sc2[nH]c3ccccc3c2CCNCc2ccc(Oc3ccccc3)cc2)c([N+](=O)[O-])c1 [Compound 5], the IC50 (human TRPM8 [1]; 300 µM menthol-evoked currents, read-out: Potency IC50) is reported as 340 ± 26 nM, the IC50 (human TRPM8 [1]; TRPM8 antagonist, menthol-evoked currents, one range for both compounds, read-out: IC50) is reported as 204 to 340 nM and the “inhibitory effect on menthol-evoked TRPM8 currents” value (human TRPM8 [1]) is reported as “concentration-dependent”.

With Cn1cc(CNCCc2ccc(-c3ccccc3)cc2)c2cc(CNc3ccc(F)cc3)ccc21 [Compound 9] the IC50 (human TRPM8 [1]; TRPM8 antagonist, read-out: IC50) was 5000 nM, the “inhibitory effect on menthol-evoked TRPM8 currents” value (human TRPM8 [1]) was “concentration-dependent” and the “inhibitory effect on R1881-stimulated DNA synthesis, compared with 3 and 5” value (LNCaP cells [2]) was “stronger”.

In the case of COc1ccc(NC(=O)[C@@H]2C[C@H](C)CC[C@H]2C(C)C)cc1 [WS-12], the “viability of LNCaP cells” value (LNCaP cells [3]) is listed as “slightly modify”.

For c1ccc(Oc2ccc(CNCCc3c[nH]c4ccccc34)cc2)cc1 [Compound 3], the “% Efficacy” value (human TRPM8 [4]) is listed as 100.0 ±8.4%.

For CNC(=O)c1ccc(N2C(=S)N(c3ccc(C#N)c(C(F)(F)F)c3)C(=O)C2(C)C)cc1F [Enzalutamide], the BrdU incorporation (C4-2B cells) was “did not observe any effect”, the “androgen-induced PSA secretion” value (PSA; R1881, 48 h) was “strongly inhibited” and the “PSA secretion when used alone” value (PSA; no R1881) was “Neither the two TRPM8 antagonists, nor enzalutamide did modify such response”. The “androgen-elicited activation of FAK, paxillin, ERK, RSK and Src” value [5] was “impaired at similar extent”, the “androgen-induced AR/TRPM8 complex assembly” value (AR/TRPM8 complex; 10 nM R1881, 10 min, enzalutamide 10 μM) was “perturbed” and the “AR, Average (n=3)” value (AR/TRPM8 complex; [6]) was 1,1. The “TRPM8, Average (n=3)” value (AR/TRPM8 complex; [6]) was 0,3, the “AR, Average (n=3)” value (AR/TRPM8 complex; second group of list) was 0,1 and the “TRPM8, Average (n=3)” value (AR/TRPM8 complex; second group of list) was 0,1. For the same molecule, the “AR, Average (n=3)” value (AR/TRPM8 complex; third group of list) was 1, the “TRPM8, Average (n=3)” value (AR/TRPM8 complex; third group of list) was 0 and the “AR, Average (n=3)” value (AR) was 1,1. For the same molecule, the “TRPM8, Average (n=3)” value (TRPM8) was 1,1.
